Experimental data published in article PMC7178208 (International Journal of Molecular Sciences, 2020).
Converted amounts (≈) assume the structure as drawn. “Also recorded” adds a separate entry of the source. Square brackets hold non-standard residues; d marks the D form. Peptide text beside a SMILES is read from it. * marks the point of attachment. FITC = O=C1OC2(c3ccc(O)cc3Oc3cc(O)ccc32)c2ccc(NC(=S)*)cc21; Bip = N[C@@H](Cc1ccc(-c2ccccc2)cc1)C(=O)O; Dip = N[C@H](C(=O)O)C(c1ccccc1)c1ccccc1; Ahx = NCCCCCC(=O)O

What was measured:
[1] = histidine residues replaced with non-natural amino acids; cited from earlier work
C. albicans [2] = assay: Scanning electron microscopy, cell morphology; type: cell-based, Candida albicans; details: 50 μM peptide, 10^7 CFU/mL, SD broth, 28 °C, 5 min
Experimental: Time-course morphological studies of C. albicans were performed by scanning electron microscopy (SEM). Overnight cultures of C. albicans were sub-cultured and grown in SD broth. Then, 10^7 CFU/mL of C. albicans was treated with 0.25 mM P-113 in SD broth at 28 °C. Samples were collected following 1, 2, 3, 4, 5, and 6 h of incubation. Another experiment was performed to observe the morphological changes caused over in a short time caused by Bip-P-113 and Dip-P-113. Briefly, 10^7 CFU/mL of C. albicans in SD broth was treated for 5 min at 28 °C with 50 μM P-113, Bip-P-113, and Dip-P-113. After harvest, cells were resuspended in fixation solution (2.5% glutaraldehyde in 20 mM phosphate buffer pH 7.4) and then placed on Thermanox substrate-coated cover slips at 4 °C for 12 h. The cover slips were carefully washed three times with 20 mM phosphate buffer (pH 7.4), followed by incubation in post-fixation solution (1% OsO4 in 20 mM phosphate buffer pH 7.4) at room temperature for an hour. After being washed three times with 20 mM phosphate buffer (pH 7.4), the cover slips were air-dried for an hour by dehydration with a graded series of ethanol. Samples were gold-coated and observed under an S-4700 field-emission (FE)-SEM (Hitachi, Ltd., Tokyo, Japan) at an acceleration voltage of 5 kV.

Candida albicans = type: cell-based; details: 1× MIC, 30 min, SD broth, 28 °C, 5 × 10^4 CFU/mL, normal salt conditions, triplicate
Experimental: Figure 7 Time killing activity of FITC-labeled P-113 peptide and its FITC-labeled derivatives against Candida albicans. Cells were treated with 1× MIC of (a) P-113 (black circle), FITC-labeled N-terminal truncated P-113 (black square), FITC-labeled C-terminal truncated P-113 (black triangle), and (b) treated with FITC-labeled Bip-P-113 (white square), and FITC-labeled Dip-P-113 (white triangle). Killed cells (%) = (cell number in peptide-free control − cell number in sample)/(cell number in peptide-free control) × 100. Error bars represent the standard errors of the mean.
C. albicans were cultivated onto Sabouraud dextrose agar plates overnight and sub-cultured twice before time killing assays. A total of 5 × 10^4 CFU/mL of C. albicans cells were treated with 1× MIC of FITC-conjugated P-113 peptides and their derivatives in SD broth for 10, 20, 30, 60, and 120 min at 28 °C. After that time, serial dilutions (1:10) of the incubation mixtures were added onto SD agar. The numbers of CFU were counted after 24 h of incubation at 28 °C. The percentage of killed cells was calculated by comparison with the number of cells in a control sample incubated without P-113 peptide. The assays were performed in triplicate.

C. albicans [3] = assay: Confocal laser microscopy, localization of FITC peptides; type: cell-based, Candida albicans; details: 50 μM FITC-conjugated peptide, 10^7 CFU/mL, SD broth, 28 °C, 5 min
Experimental: Firstly, 10^7 CFU/mL of C. albicans was incubated with 0.25 mM FITC P-113 and 0.25 mM FITC alone (as a negative control) in SD broth at 28 °C for 1, 2, 3, 4, 5, and 6 h. Another experiment was performed to observe the short-term localization of Bip-P-113 and Dip-P-113 peptides. Briefly, log-phase C. albicans cultures were resuspended to a cell density of 10^7 CFU/mL in SD broth and treated for 5 min at 28 °C with 50 μM FITC-conjugated P-113, Bip-P-113, and Dip-P-113. After centrifugation, the cells were washed three times with 20 mM phosphate buffer (pH 7.4) to remove nonbinding peptides and fixed with 4% (w/v) paraformaldehyde in 20 mM phosphate buffer (pH 7.4) at room temperature for 20 min. Following fixation, the cells were centrifuged at 3500× g for 5 min, resuspended in phosphate buffer, and loaded onto a glass slide with a 1.4% solid agarose bed. The images were taken with a confocal laser scanning microscope (LSM 510 META, Carl Zeiss, Jena, Germany) equipped with a 40× C-Apochromat water-immersion objective lens (Carl Zeiss, Jena, Germany).

C. albicans [4] = assay: Flow cytometry, fluorescence of cells incubated with FITC peptides; type: cell-based, Candida albicans; details: 50 μM FITC peptide, 5 × 10^6 CFU/mL, SD broth, 28 °C, 30 min, n = 3
Experimental: Firstly, 5 × 10^6 CFU/mL of C. albicans cells were incubated with 50 µM FITC P-113, FITC N-terminal truncated P-113, and FITC C-terminal truncated P-113 peptides for 30 min at 28 °C in SD broth. The resuspended cell pellets described above were also used for flow cytometry experiments. Flow cytometric cell sorting was performed (10,000 events/sample) by using flow cytometry (BD Accuri™ C6 Plus Flow Cytomete, BD Biosciences, NJ, USA). The quantitative data were analyzed by Prism software.

C. albicans [5] = assay: Fluorescence microscopy, localization of FITC truncated peptides; type: cell-based, Candida albicans; details: 50 μM FITC peptide, 10^7 CFU/mL, SD broth, 28 °C, 30 min
Experimental: Firstly, 10^7 CFU/mL of C. albicans cells were incubated with 50 µM FITC N-terminal truncated P-113, FITC C-terminal truncated P-113 peptides, and FITC alone for 30 min at 28 °C in SD broth. After incubation, the cells were centrifuged at 3500× g for 5 min and then washed three times with 20 mM phosphate buffer (pH 7.4) to remove unbound peptides. The resulting pellets were resuspended and immobilized on the glass slips with a 1.4% solid agarose bed. Fluorescence images were captured using an inverted fluorescence microscope (ECLIPSE E400, Nikon, Tokyo, Japan) with a camera (AxioCam ICc5, ZEISS, Jena, Germany).

[6] = test system: C. albicans American Type Culture Collection (ATCC) 10,231; type: cell-based, Candida albicans; details: American Type Culture Collection (ATCC) 10,231, 24 h
Experimental: C. albicans (ATCC 10231) from the American Type Culture Collection (Manassas, VA, USA) was cultured at 28 °C on SD agar plates.
To determine the minimum inhibitory concentration (MIC) values of the FITC conjugated-P-113 peptides and their derivatives, a broth microdilution assay was used. Overnight-grown cultures of C. albicans in SD broth were sub-cultured for several hours and subsequently diluted to a final concentration of 5 × 10^4 CFU/mL in Mueller Hinton (MH) broth and LYM broth. A total of 100 μL of diluted microbe was transferred into each well of a 96-well plate, into which a 1 μL dilution series of peptides in sterile water (ranging from 50 to 0.78 μg/mL) was previously added. After incubation for 24 h at 28 ℃, the MIC value of P-113 peptides was determined as the lowest concentration at which no change in optical density was observed. The experiment was conducted three times, and average values were reported.

[7] = 10^7 CFU/mL of C. albicans + 0.5 mM pepstatin A; details: C. albicans (ATCC 10231), 301 K, up to 24 h
[8] = 10^7 CFU/mL of C. albicans in SD broth; details: C. albicans (ATCC 10231), 301 K, up to 24 h

Compound	Degradation in serum [1]	Cell surface morphology (SEM), short exposure (C. albicans [2])	Cellular localization of FITC peptide (C. albicans [3])	MIC, LYM Control [6]	MIC, MH Broth [6]	further results
C[C@H](NC(=O)CCCCCNC(=S)Nc1ccc2c(c1)C(=O)OC21c2ccc(O)cc2Oc2cc(O)ccc21)C(=O)N[C@@H](CCCCN)C(=O)N[C@@H](CCCNC(=N)N)C(=O)N[C@@H](Cc1ccc(-c2ccccc2)cc1)C(=O)N[C@@H](Cc1ccc(-c2ccccc2)cc1)C(=O)NCC(=O)N[C@@H](Cc1ccc(O)cc1)C(=O)N[C@@H](CCCCN)C(=O)N[C@@H](CCCNC(=N)N)C(=O)N[C@@H](CCCCN)C(=O)N[C@@H](Cc1ccccc1)C(=O)N[C@@H](Cc1ccc(-c2ccccc2)cc1)C(N)=O [Bip-P-113] ({FITC-Ahx}-AKR[Bip][Bip]GYKRKF[Bip]-NH2; N-terminus assumed)	protects	became rippled and showed deep pore formation	accumulated on the surface of cells and did not translocate into the cytoplasm	–	–	Reduction in cell viability (Candida albicans): 99%
C[C@H](NC(=O)CCCCCNC(=S)Nc1ccc2c(c1)C(=O)OC21c2ccc(O)cc2Oc2cc(O)ccc21)C(=O)N[C@@H](CCCCN)C(=O)N[C@@H](CCCNC(=N)N)C(=O)N[C@@H](Cc1c[nH]cn1)C(=O)N[C@@H](Cc1c[nH]cn1)C(=O)NCC(=O)N[C@@H](Cc1ccc(O)cc1)C(=O)N[C@@H](CCCCN)C(=O)N[C@@H](CCCNC(=N)N)C(=O)N[C@@H](CCCCN)C(N)=O [C-ter truncated P-113] ({FITC-Ahx}-AKRHHGYKRK-NH2; N-terminus assumed)	–	–	–	50 µg/mL (≈ 28.1 µM)	>50 µg/mL	Fluorescence intensity of cells compared with cells incubated with intact P-113 (C. albicans [4]): dramatic decrease in fluorescence intensity; Green fluorescence in cells compared with N-terminal truncated P-113 (C. albicans [5]): less green fluorescence
C[C@H](NC(=O)CCCCCNC(=S)Nc1ccc2c(c1)C(=O)OC21c2ccc(O)cc2Oc2cc(O)ccc21)C(=O)N[C@@H](CCCCN)C(=O)N[C@@H](CCCNC(=N)N)C(=O)N[C@H](C(=O)N[C@H](C(=O)NCC(=O)N[C@@H](Cc1ccc(O)cc1)C(=O)N[C@@H](CCCCN)C(=O)N[C@@H](CCCNC(=N)N)C(=O)N[C@@H](CCCCN)C(=O)N[C@@H](Cc1ccccc1)C(=O)N[C@H](C(N)=O)C(c1ccccc1)c1ccccc1)C(c1ccccc1)c1ccccc1)C(c1ccccc1)c1ccccc1 [Dip-P-113] ({FITC-Ahx}-AKR[Dip][Dip]GYKRKF[Dip]-NH2; N-terminus assumed)	protects	became rippled and showed deep pore formation	accumulated on the surface of cells and did not translocate into the cytoplasm	–	–	–
N=C(N)NCCC[C@H](NC(=O)CCCCCNC(=S)Nc1ccc2c(c1)C(=O)OC21c2ccc(O)cc2Oc2cc(O)ccc21)C(=O)N[C@@H](Cc1c[nH]cn1)C(=O)N[C@@H](Cc1c[nH]cn1)C(=O)NCC(=O)N[C@@H](Cc1ccc(O)cc1)C(=O)N[C@@H](CCCCN)C(=O)N[C@@H](CCCNC(=N)N)C(=O)N[C@@H](CCCCN)C(=O)N[C@@H](Cc1ccccc1)C(=O)N[C@@H](Cc1c[nH]cn1)C(N)=O [N-ter truncated P-113] ({FITC-Ahx}-RHHGYKRKFH-NH2; N-terminus assumed)	–	–	–	25 µg/mL (≈ 13.4 µM)	>50 µg/mL	–
AKRHHGYKRKFH	–	–	–	–	–	not cleaved [7]: no noticeable changes in ^1H-^15N HSQC chemical shifts in the presence of pepstatin A (24 h); cleaved bond [8]: Lys10-Phe11, first_seen, 1 h; also recorded: Tyr7-Lys8, 2–3 h; also recorded: Lys8-Arg9
